Here are results for 7 compounds from patent EP1756125B1, “1,1,3,3,3-[…]-1-OXO/THIO-1LAMBDA5,3LAMBDA5-DIPHOSPHAZ-2-ENES, METHOD FOR PRODUCING THEM AND THEIR USE AS AGENTS FOR […] […] […] UREA” (SKW STICK[…] GmbH, priority 2004, dated 2005).

The subject of the assay is Urease. Description: Test for urease-inhibiting effect in soil (NH3-N release from urea, closed vessel with ammonia trap). The format is biochemical. The settings on record: soil at 40 % of maximum water capacity, 50 mg urea, t50 = day after start at which inhibition of urea hydrolysis is still 50 %. The procedure:
30 g auf 40 % der maximalen Wasserkapazität eingestellter Boden werden mit 1 ml Harnstofflösung entsprechend 50 mg Harnstoff versetzt. Gleichzeitig erfolgt die Applikation des Wirkstoffes, vorzugsweise in der Harnstofflösung gelöst. Die Konzentrationsangaben für die einzelnen geprüften Wirkstoffe in der nachfolgenden Tabelle beziehen sich auf die im Test verwendete Menge an Carbamidstickstoff. Der Boden, auf dessen Oberfläche die Harnstofflösung (mit und ohne Wirkstoff) aufgebracht wird, befindet sich in einem luftdicht verschlossenen Gefäß, in das gleichzeitig eine Vorlage eingebracht wird, die den aus dem Harnstoff freigesetzten Ammoniak als Ammonium auffängt. Durch tägliches Überspülen der Vorlage und Analyse der enthaltenen NH4-N-Mengen wird die NH3-N-Freisetzung aus dem Harnstoff bestimmt.
Aus der Summation der Ammonium-Mengen in der Vorlage wird die prozentuale Hemmung der Harnstoff-Hydrolyse in Abhängigkeit von der Zeit berechnet bzw. aus diesen Werten der t50-Wert rechnerisch ermittelt.
Als t50-Wert wird der Zeitpunkt in Tagen nach Versuchsbeginn verstanden, zu dem die Hemmung der Harnstoff-Hydrolyse noch 50 % beträgt.

As to `CCCCNP(N)(=NP(N)(N)=S)NCCCC` [Verbindung 1, 3,3-Bis(butylamino)-1,1,3,-triamino-1-thio-1λ^5,3λ^5-diphosphaz-2-en], for the setting “Konz. 0,1 % HS-N-bez.”, the t50-Wert is 9,4 d. In the case of `CCCCNP(N)(=NP(N)(N)=O)NCCCC` [Verbindung 2, 3,3-Bis(butylamino)-1,1,3,-triamino-1-oxo-1λ^5,3λ^5-diphosphaz-2-en], the t50-Wert (Konz. 0,1 % HS-N-bez.) is given as 8,8 d.

As to `CCCNP(N)(=NP(N)(N)=S)NCCC` [Verbindung 3, 3,3-Bis(propylamino)-1,1,3,-triamino-1-thio-1λ^5,3λ^5-diphosphaz-2-en], the t50-Wert (Konz. 0,1 % HS-N-bez.) is listed as 10,4 d. The same measure, in the same setting: in the case of `CCCNP(N)(=NP(N)(N)=O)NCCC` [Verbindung 4, 3,3-Bis(propylamino)-1,1,3,-triamino-1-oxo-1λ^5,3λ^5-diphosphaz-2-en] it was 9,6 d; in that of `CCCCNP(N)(N)=NP(N)(N)=S` [Verbindung 5, 3-Butylamino-1,1,3,3-tetraamino-1-thio-1λ^5,3λ^5-diphosphaz-2-en], 14,5 d; in that of `CCCNP(N)(N)=NP(N)(N)=S` [Verbindung 6, 3-Propylamino-1,1,3,3-tetraamino-1-thio-1λ^5,3λ^5-diphosphaz-2-en], 14,2 d.

Take `CCN(CC)P(N)(N)=NP(N)(N)=S` [Verbindung 7, 3-Diethylamino-1,1,3,3-tetraamino-1-thio-1λ^5,3λ^5-diphosphaz-2-en]: the t50-Wert (Konz. 0,5 % HS-N-bez.) is reported as 7,9 d.
